# Literature values in US12268679B1 (priority 2021, dated 2025).
# Tests used:
# human delta receptor = human delta receptor (Homo sapiens, UniProt P41143); settings: Ferrari et al. 2017
# [1] = animal studies, systemic administration, Hirao et al. 2008
# Chain of human delta receptor (P41143 whole entry): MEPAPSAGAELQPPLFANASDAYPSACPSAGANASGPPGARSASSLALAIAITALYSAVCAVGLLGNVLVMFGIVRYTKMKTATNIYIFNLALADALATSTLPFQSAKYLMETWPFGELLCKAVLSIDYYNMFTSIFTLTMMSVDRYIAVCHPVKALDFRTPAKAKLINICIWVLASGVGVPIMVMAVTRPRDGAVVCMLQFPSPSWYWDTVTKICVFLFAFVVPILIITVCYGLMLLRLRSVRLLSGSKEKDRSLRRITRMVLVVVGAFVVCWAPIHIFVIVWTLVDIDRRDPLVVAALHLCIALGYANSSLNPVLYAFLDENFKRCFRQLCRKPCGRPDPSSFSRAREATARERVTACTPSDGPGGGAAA
smiles,measurement,setting,value
"CC1(N2CCC(n3c([C@@H]4CCCNC4)nc4ccccc43)CC2)CCCCCCC1 [MCOPPB, 1-[1-(1-methylcyclooctyl)-4-piperidinyl]-2-[(3R)-3-piperidinyl]-1H-benzimidazole]",activation of human delta receptor,human delta receptor,only a small amount
same,inhibition of memory or motor function,[1],no inhibition of memory or motor function
same,sedative side effects,[1]; appear only at much higher doses than the effective anxiolytic dose range,only slight sedative side effects
